Patent publication US20150119363A1, “METHODS OF TREATING BACTERIAL INFECTIONS” (Rampex Pharmaceuticals, Inc., priority 2012, published 2015)
Where two headings read alike, the source gives them in different places.

Experiments:
[1] = system: EC1007 KPC-3; test: Dose titration biapenem potentiation assay (MPC1); assay type: cell-based, Escherichia coli; conditions: biapenem 1 μg/mL
Experimental: (§1) The potency and spectrum of β-lactamase inhibitors is also determined by assessing their biapenem potentiation activity in a dose titration potentiation assay using strains expressing serine carbapemenases (such as KPC). The potentiation effect is observed as the ability of BLI compounds to inhibit growth in the presence of sub-inhibitory concentration of biapenem. […] Biapenem is present in the test medium at 1 μg/mL. Compounds tested at the highest concentration of 40 μg/mL. […] Table 5 summarizes BLI potency of biapenem potentiation (MPC1). Biapenem MIC for each strain is also shown.

[2] = system: KP1008 KPC-2; test: Dose titration biapenem potentiation assay (MPC1); assay type: cell-based, Klebsiella pneumoniae; conditions: biapenem 1 μg/mL
Experimental: as §1

[3] = system: KP1004 KPC-2; test: Dose titration biapenem potentiation assay (MPC1); assay type: cell-based, Klebsiella pneumoniae; conditions: biapenem 1 μg/mL
Experimental: as §1

[4] = target: T1, KPC-2 (Klebsiella pneumoniae KP1008 lysate) (Klebsiella pneumoniae, UniProt Q9F663); test: Inhibition of biapenem hydrolysis by bacterial lysate; assay type: biochemical
T1 construct: Lysates were prepared from bacteria expressing various β-lactamases as a source of enzymes; endogenous in cells; host or cells: Klebsiella pneumoniae strains KP1004 and KP1008 (freeze-thaw lysate supernatants)
T1 sequence (Q9F663 25-293 limits assumed): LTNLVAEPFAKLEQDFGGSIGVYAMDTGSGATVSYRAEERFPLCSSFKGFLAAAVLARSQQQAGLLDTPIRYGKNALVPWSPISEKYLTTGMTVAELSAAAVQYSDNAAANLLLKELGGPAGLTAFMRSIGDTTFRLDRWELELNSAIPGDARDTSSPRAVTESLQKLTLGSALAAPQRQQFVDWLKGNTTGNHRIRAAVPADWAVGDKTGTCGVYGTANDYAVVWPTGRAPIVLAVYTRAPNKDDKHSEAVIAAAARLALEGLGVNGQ
Experimental: (§2) The activity of β-lactamase inhibitors to inhibit hydrolysis of biapenem was studied. Lysates were prepared from bacteria expressing various β-lactamases as a source of enzymes. Bacterial lysates were prepared as follows. A single colony from the fresh overnight plate was transferred to 5 mL of LB broth and grown to OD600=0.6-0.8. Next, this culture was transferred to 500 mL of LB and grown to OD600=0.7-0.9. Cells were pelleted by centrifugation at 5000 RPM (JA-14 rotor) for 15 minutes at room temperature. The pellet was resuspended in 10 mL of PBS. Five freeze-thaw cycles by putting cells at −20° C. and thawing them at the room temperature were next applied. After the last thaw step cells were spun down at 18K for 30 minutes and the supernatant was collected. This lysate was stored at −20° C.
(§3) Next, the activity of bacterial lysates was optimized for biapenem cleavage as follows. 50 μl of buffer A (50 mM Sodium Phosphate pH=7; 0.5% glucose, 1 mM MgCl2) was added to each well of 96-well UV-transparent plate. 50 μl of lysate was titrated vertically in 96-well plate column to generate 2-fold lysate dilutions. 100 μl of buffer A was added to each well, placed in plate reader at 37° C. and incubated for 15 minutes. 50 μl of 50 μg/mL solutions of biapenem in buffer A (pre-incubated at 37° C. for 15 minutes) were added to each well. Hydrolysis of biapenem was measured at 296 nm. This experiment was used to determine the optimal lysate dilution which produced a linear curve of relative UV signal that decreased to approximately OD=0.3-0.5 over 1 hour.
(§4) Finally, the potency of cyclic boronic acid derivative to inhibit the cleavage of biapenem cleavage by bacterial lysates was determined. 100 μl of buffer A (50 mM Sodium Phosphate pH=7; 0.5% glucose, 1 mM MgCl2) was added to each well of 96-well UV-transparent plate. 50 μl of 6× cyclic boronic acid derivative solution in buffer A was titrated vertically in 96-well plate column to generate 3-fold dilutions. 50 μl of diluted lysate in buffer A (optimal dilution is determined in experiment above) was added, and the plate was incubated in the plate reader at 37° C. for 15 minutes. 50 μl of 50 μg/mL solution of biapenem in buffer A (pre-incubated at 37° C. for 15 minutes) were next added to each well and hydrolysis of biapenem was recorded at 296 nm. EC50 of inhibition was determined by plotting the rate of biapenem cleavage vs. cyclic boronic acid derivative concentration.

[5] = target: T2, KPC-2 (Klebsiella pneumoniae KP1004 lysate) (Klebsiella pneumoniae, UniProt Q9F663); test: as above; assay type: biochemical
T2 construct: Lysates were prepared from bacteria expressing various β-lactamases as a source of enzymes; endogenous in cells; host or cells: Klebsiella pneumoniae strains KP1004 and KP1008 (freeze-thaw lysate supernatants)
T2 sequence (Q9F663 25-293 limits assumed): as above
Experimental: as §2, §3, §4

[6] = target: T3, SME-2 (Serratia marcescens SM1000 lysate) (Serratia marcescens, UniProt P52682); test: as above; assay type: biochemical
T3 construct: Lysates were prepared from bacteria expressing various β-lactamases as a source of enzymes
T3 sequence (P52682 28-294 limits assumed): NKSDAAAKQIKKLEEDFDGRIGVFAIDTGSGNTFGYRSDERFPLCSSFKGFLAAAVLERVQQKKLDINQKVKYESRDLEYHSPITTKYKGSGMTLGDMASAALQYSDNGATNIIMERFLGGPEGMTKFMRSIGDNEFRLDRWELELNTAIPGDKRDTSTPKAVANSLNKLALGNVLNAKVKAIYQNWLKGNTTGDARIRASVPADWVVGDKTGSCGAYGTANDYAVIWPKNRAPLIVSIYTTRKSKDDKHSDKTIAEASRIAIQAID
Experimental: as §2, §3, §4

[7] = target: T4, KPC-3 (Escherichia coli EC1007 lysate) (Klebsiella pneumoniae, UniProt Q9F663, H272Y); test: as above; assay type: biochemical
T4 construct: Lysates were prepared from bacteria expressing various β-lactamases as a source of enzymes; endogenous in cells; host or cells: Escherichia coli strain EC1007 (freeze-thaw lysate supernatant)
T4 sequence (Q9F663 25-293 H272Y): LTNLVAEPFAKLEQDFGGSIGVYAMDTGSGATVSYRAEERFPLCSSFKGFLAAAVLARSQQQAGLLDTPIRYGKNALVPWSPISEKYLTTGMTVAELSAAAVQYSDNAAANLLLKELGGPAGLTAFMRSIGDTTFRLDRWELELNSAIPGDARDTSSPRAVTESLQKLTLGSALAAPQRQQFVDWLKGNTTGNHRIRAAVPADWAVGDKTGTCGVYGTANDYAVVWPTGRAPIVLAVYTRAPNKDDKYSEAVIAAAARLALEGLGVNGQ
Experimental: as §2, §3, §4

[8] = system: ECL1004 NMC-A; test: Dose titration biapenem potentiation assay (MPC1); assay type: cell-based, Enterobacter cloacae; conditions: biapenem 1 μg/mL
Experimental: as §1

[9] = system: Acinetobacter baumannii AB1057 (OXA-58); test: Checkerboard assay, biapenem potentiation (MPC8); assay type: cell-based; conditions: concentration to reduce biapenem MIC 8-fold
Experimental: (§5) The potency and spectrum of β-lactamase inhibitors was determined by assessing their antibiotic potentiation activity.
(§6) The potentiation effect is observed by the reduction of the minimum inhibitory concentration of β-lactam antibiotics in the presence of β-lactamase inhibitors (BLIs). […] Methods for Dilution of Antimicrobial Susceptibility Tests for Bacteria That Grow Aerobically—Eighth Edition; Approved Standard. CLSI Document M07-A8, 2009). In this assay, multiple dilutions of two drugs, namely BLI and β-lactam (biapenem), are being tested, alone and in combination, at concentrations equal to, above and below their respective minimal inhibitory concentrations (MICs). BLIs are solubilized in 10% DMSO at 10 mg/mL. Stock solutions are further diluted, according to the needs of a particular assay, in Mueller Hinton Broth (MHB). Stock solution can be stored at −80° C.
(§7) The checkerboard (CB) assay is performed in microtiter plates. Biapenem is diluted in the x axis, each column containing a single concentration of antibiotic. BLIs are diluted in the y axis, each row containing an equal concentration of BLI. The result of these manipulations is that each well of the microtiter plate contains a unique combination of concentrations of the two agents. The assay is performed in MHB with a final bacterial inoculum of 5×10^5 CFU/mL (from an early-log phase culture). Microtiter plates are incubated during 20 h at 35° C. and are read using a microtiter plate reader (Molecular Devices) at 650 nm as well as visual observation using a microtiter plate reading mirror.
(§8) Biapenem is a carbapenem β-lactam; only selected β-lactamases confer resistance to this class of antibiotics. Among them are serine carbapemenases that belong to class A and class D. Biapenem potentiation is studied in strains expressing various carbapenemases from these classes using CB assays. […] Cyclic boronic acid derivatives were capable of reducing biapenem MICs up to 1000-fold (Table 3).

[10] = system: Klebsiella pneumoniae KP1004 (KPC-2); test: Checkerboard assay, biapenem potentiation (MPC8); assay type: cell-based; conditions: concentration to reduce biapenem MIC 8-fold
Experimental: as §5, §6, §7, §8

[11] = system: Acinetobacter baumannii AB1054 (OXA-23); test: Checkerboard assay, biapenem potentiation (MPC8); assay type: cell-based; conditions: concentration to reduce biapenem MIC 8-fold
Experimental: as §5, §6, §7, §8

[12] = SM1000 SME-2 lysate; read-out: IC50 (μg/mL) of inhibition of biapenem hydrolysis
[13] = EC1007 KPC-3 lysate, read-out: IC50 (μg/mL) of inhibition of biapenem hydrolysis

Compound | BPM MPC1 EC1007 KPC-3 ([1]; numeric value) | BPM MPC1 KP1008 KPC-2 ([2]; numeric value) | BPM MPC1 KP1004 KPC-2 ([3]; numeric value) | IC50 [4] | IC50 [5] | IC50 ([6]; read-out: IC50 (μg/mL) of inhibition of biapenem hydrolysis; SM1000 SME-2 lysate) | IC50 [7] | BPM MPC1 ECL1004 NMC-A ([8]; numeric value) | BPM MPC1 EC1007 KPC-3 [1] | BPM MPC1 KP1008 KPC-2 [2] | BPM MPC1 KP1004 KPC-2 [3] | MPC8 [9] | MPC8 [10] | MPC8 [11] | IC50 [6, 12] | IC50 [7, 13] | BPM MPC1 ECL1004 NMC-A [8]
C[C@]1(Cn2ccnn2)[C@H](C(=O)O)N2C(=O)C[C@H]2S1(=O)=O [Tazobactam, reference compound] | 5 µg/mL | 0.3 µg/mL | 40 µg/mL | > 3.33 µM | > 3.33 µM | 0.333 to 3.33 µM | > 3.33 µM | 0.6 µg/mL |  |  |  |  |  |  |  |  | 
O=C(O)CC1CC[C@H](NC(=O)C2CC2)B(O)O1 (stereo partly drawn) [Compound 4, 2-((3R)-3-(cyclopropanecarboxamido)-2-hydroxy-1,2-oxaborinan-6-yl)acetic acid] |  |  |  | > 4.15 µM | 0.415 to 4.15 µM |  |  |  | X (X = MPC1 of less than 1 μg/mL.) | X (X = MPC1 of less than 1 μg/mL.) | X (X = MPC1 of less than 1 μg/mL.) | Z (Z = MPC8 of greater than 1 μg/mL.) | X (X = MPC8 of less than 0.16 μg/mL.) | Z (Z = MPC8 of greater than 1 μg/mL.) | 0.415 to 4.15 µM | 0.415 to 4.15 µM | X (X = MPC1 of less than 1 μg/mL.)
O=C(O)C[C@@H]1CC[C@H](NC(=O)Cc2ccccc2)B(O)O1 [Compound 6, 2-((3R,6S)-2-hydroxy-3-(2-phenylacetamido)-1,2-oxaborinan-6-yl)acetic acid] |  |  |  | 0.344 to 3.44 µM | 0.344 to 3.44 µM |  |  |  | X (X = MPC1 of less than 1 μg/mL.) | X (X = MPC1 of less than 1 μg/mL.) | X (X = MPC1 of less than 1 μg/mL.) | Z (Z = MPC8 of greater than 1 μg/mL.) | X (X = MPC8 of less than 0.16 μg/mL.) | X (X = MPC8 of less than 0.16 μg/mL.) | 0.344 to 3.44 µM | < 0.344 µM | X (X = MPC1 of less than 1 μg/mL.)
CC(=O)N[C@H]1CCC(CC(=O)O)OB1O (stereo partly drawn) [Compound 3, 2-((3R)-3-acetamido-2-hydroxy-1,2-oxaborinan-6-yl)acetic acid] |  |  |  | > 4.65 µM | > 4.65 µM |  |  |  | X (X = MPC1 of less than 1 μg/mL.) | X (X = MPC1 of less than 1 μg/mL.) | X (X = MPC1 of less than 1 μg/mL.) | Z (Z = MPC8 of greater than 1 μg/mL.) | X (X = MPC8 of less than 0.16 μg/mL.) | Z (Z = MPC8 of greater than 1 μg/mL.) | > 4.65 µM | 0.465 to 4.65 µM | Y (Y = MPC1 of 1 μg/mL to 5 μg/mL.)
O=C(O)CC1CC[C@H](NC(=O)Cc2ccccc2)B(O)O1 (stereo partly drawn) [Compound 2, 2-((3R)-2-hydroxy-3-(2-phenylacetamido)-1,2-oxaborinan-6-yl)acetic acid] |  |  |  |  |  |  |  |  |  |  |  |  | X (X = MPC8 of less than 0.16 μg/mL.) |  |  |  | 
